Test [1] deals with GRE3 dsDNA (guanine of GRE changed to adenine). Description: Thiazole orange total fluorescence titration with unlabeled DNA. Conditions: TO fluorescence ex 510 nm, em 535 nm; read-out: binding constant (dissociation constant). How it is done:
Fluorescence Measurements. Steady state fluorescence anisotropy measurements were carried out in 20 mM Tris (pH 7.9), 30 mM NaCl, 20 mM KCl, 1 mM MgCl2, and 5% glycerol. […] DNA samples used were either the non-labeled sequences shown in FIG. 2 or a fluorescein labeled duplex with a sequence matching GRE2 (FIG. 2).
For non-labeled DNA titrations (measuring the fluorescence from thiazole orange), the excitation wavelength was 510 nm and the emission was recorded at 535 nm with a 1.0 nm slit width. Glass cuvettes were used with a 0.3 cm path length. Titrations were performed using a constant concentration of unconjugated thiazole orange (TO) or TO-ZF and titrated with DNA as indicated.
Total fluorescence data were collected in parallel to the anisotropy measurements and were calculated from raw data as the fluorescence intensity in the vertical plane plus two times the fluorescence intensity of the horizontal plane, (TF=Ivv+2Ivh). These values were used to determine the percent of the maximum fluorescence for each point along the titration and fit to equation 2. [formula]
In equation 2, f corresponds to the fraction of TO-ZF conjugate bound at a given concentration of DNA. The concentration given as [TO(ZF)]T corresponds to either the unconjugated thiazole orange or the TOZF conjugate as indicated and [GRE]T is the total concentration of GRE binding sites. The parameter of the fit was the dissociation constant (Kd).
Titrations of the TO fluorescence upon binding of TO-ZF to unlabeled DNA were measured for the dsDNA sequences shown in FIG. 2. TO fluorescence was excited at 510 nm and collected at 535 nm. The GRE1 DNA sequence contains the same binding site as does the GRE2 DNA sequence used above, however, the GRE3 sequence contains a single mutation of the guanine in the native GRE target sequence (5′-TGTTCT-3′) to an adenine. The GRE2 and GRE3 sequences were generated for use in the photocleavage measurements described below. Finally, the GRE4 and ERE recognition sequences are from the non-specific GRE halfsite and the estrogen response element (ERE), respectively. M. A. L. Eriksson, J. Molec. Biol. 253:453-472 (1995). These are used in conjunction with the other sequences to determine the sensitivity of this probe. The DNA is not fluorescently labeled in these measurements. Therefore, the fluorescence is exclusively from thiazole orange molecules intercalated into dsDNA.
Fitting the binding curves to a two-state binding model (see Materials and Methods) results in a dissociation constant of 25 nM for GRE1 and GRE2, which contain the native GRE. Titrations of the modified GRE sequences and the ERE sequence yielded binding constants of 57 nM, 220 nM and 810 nM for the TO-ZF conjugate bound to GRE3, GRE4, and ERE, respectively.

In a further test the test system is GRE1 dsDNA. In words: Photocleavage at 514 nm, PAGE analysis. The test is classed as biochemical. How it is done: The purified DNA strands shown in FIG. 2 were 5′^-32P-end-labeled using T4 polynucleotide kinase and purified as described above. Oxygen removal was performed by bubbling argon through the samples. Irradiations were performed on […] samples in a 1.0 mL glass cuvette fit with a septum using an argon-ion laser at 514 nm with a power of 300 mW/cm^2. After irradiation, samples were divided in half and one portion treated with piperidine, the other immediately frozen. Piperidine treatment consisted of adding an equal volume of freshly prepared 20% piperidine in water to the sample followed by heating at 90° C. for 30 minutes. Both the treated and untreated fractions were dried under vacuum. To each dried sample was added […] of 80% formamide in water. The products of the photocleavage experiments were analyzed on a 15% polyacrylamide (19:1) vertical sequencing gel with dimensions 21 cm×40 cm×0.4 mm. […] Gels were dried and exposed to a phosphorimaging screen for 4 hours and analyzed on a Molecular Dynamics Storm-840 gel scanner in phosphorimaging mode.
Photocleavage of TO-ZF conjugate. […] After irradiation of TO-ZF bound to dsDNA in Tris buffer solution at 514 nm (514 nm is in the main band of the absorbance spectrum of intercalated thiazole orange as shown in FIG. 3), the photo-products were denatured and separated using denaturing polyacrylamide gel electrophoresis (PAGE). […]

As to “TO-ZF: 29 amino acid single zinc finger from residues 438-465 of glucocorticoid receptor, thiazole orange coupled to a lysine ε-amine”, in test [1], the Kd came to 57 nM. In addition, the site of photocleavage entry with GRE1 dsDNA (514 nm irradiation, piperidine treatment) was “piperidine dependent cleavage to occur predominantly at the guanine within the GRE”. The “total chemical yield of the piperidine dependent reactions” value with GRE1 dsDNA (samples reacted in the presence of oxygen) stood at 2%.

Values taken from patent US6348317B1, “Fluorescent and DNA cleavage properties of peptide/dye conjugates” (The Arizona Board of Regents, priority 1999, dated 2002).
